According to patent publication US6479472B1, “Methods of using therapeutic phospholipid derivatives” (Asta Medica Aktiengesellschaft, priority 1993, dated 2002):
Where a name gives a salt, the structure may show the parent alone.

Assays:
[1] = system: human KB tumors (ATCC CCL 17 KB, human epidermoid larynx tumors); test: KB tumor model, subcutaneous implants in nude mice, oral treatment (Experiment 2); type: in vivo, female nu/nu mice (strain NMRI); conditions: for efficacy of standard cytostatics: KB implanted tumors in test mice
Description: (§1) The inventors used female, nu/nu mice (strain NMRI) aged 9-10 weeks and weighing 21-29 g (Breeder: Bomholtgard Breeding and Research Center, DK-8680 Ry) for testing. Tumor fragments consisting of the human KB tumors (ATCC; Rockville, Md.; cell line ATCC CCL 17 KB, human epidermoid larynx tumors), and having an average diameter of 2 mm, were implanted subcutaneously into the right side of the test mice.
The test mice were randomly assigned to various treatment and control groups.
Tumor weights were estimated by first palpating the tumors and then comparing the volumes of the palpated tumors with the volumes of prefabricated plasticine models according to Druckrey, et al., “Experimentelle Beiträge zum Dosis-Problem in der Krebs-Chemotherapie und zur Wirkungsweise von Endoxan, Dtsch. Med. Wschr., 88:651 (1963). After determining the weight of the models, the inventors converted each of these values to a tumor weight by determining the relationship between the specific weight of each tumor tissue and its corresponding plasticine model. To ensure the accuracy of this method, the inventors simultaneously estimated the weights of 99 individual tumors by both palpation and direct weighing of extirpated tumors.
Once the KB tumor implants attained a weight of approximately 0.2 g, the inventors commenced therapy with the compounds of Examples 1, 8, 17, 21, 22, 24 and 25 of the subject application. Each compound was dissolved in 0.9% NaCl and administered per os (stomach tube) in accordance with the regimen schedules detailed in Graphs 10-17 hereinbelow. The control mice were treated with the vehicle alone.
During the observation period, tumor weights were determined for each of the test mice at regular intervals.
The test mice were all housed under specific pathogen free (SPF) conditions with unrestricted water supply (acidified to pH 3) and standard pellet lab chow (Altromin 1324).

[2] = system: DMBA-induced mammary carcinomas; test: DMBA-induced mammary carcinoma model, oral treatment, tumor weight by palpation (Experiment 1); type: in vivo, female Sprague-Dawley rats; conditions: for efficacy of standard cytostatics: DMBA-induced mammary carcinomas in test rats
Description: The first tumor appeared approximately one month after feeding the subject rats with DMBA. Tumor weights were estimated on the basis of tumor volume. This was accomplished by palpating tumors and comparing the volumes of the palpated tumors with the volumes of prefabricated plasticine models in the manner taught by Druckrey, et al., “Experimentelle Beiträge zum Dosis-Problem in der Krebs-Chemotherapie und zur Wirkungsweise von Endoxan, Dtsch. Med. Wschr., 88:651 (1963). Each of the relevant plasticine models was then weighed and converted to a tumor weight by means of a factor reflecting the relationship between the specific weight of each tumor tissue and its corresponding plasticine model. […] A statistical evaluation of the resulting data indicated a correlation coefficient of 0.98. Test rats having a total tumor weight of approximately 1 g were randomly allocated amongst various dosage and control groups, each group having a total of 6-7 rats. In this way, the inventors were able to ensure an approximately equal distribution amongst the experimental groups of tumors having different latencies, total tumor weight and numbers of tumor nodes. […] The control group was given tap water in accordance with the same schedule. […] During the observation period, tumor weights were determined for each of the test rats at regular intervals. The test rats were all housed under specific pathogen free (SPF) conditions with unrestricted water supply (acidified to pH 3) and standard pellet lab chow (Altromin 1324). […] J. Oncol., 2:161 (1993).

[3] = system: DMBA-induced mammary carcinomas / KB implanted tumors; test: Summary statement on Experiments 1 and 2 (DMBA and KB tumor models, model not told per compound); type: in vivo, rats / mice; conditions: for tumor remission: model and regimen not given; for GII (growth inhibition index): specified dosage regimens, model not given, GII>100% = tumor regression
Protocol: The inventors induced mammary carcinomas in female Sprague-Dawley rats (Mollegaard Breeding Center, DK-4236 Ejby) aged 50 days by administering a single dose of 20 mg 7,12-dimethylbenz(a)anthracene (DMBA) dissolved in 1 ml of olive oil to each rat by gavage. The first tumor appeared approximately one month after feeding the subject rats with DMBA.
as §1
Results from Experiments 1 and 2 were calculated and expressed in accordance with the growth inhibition index (GII) described in Voegeli, et al., “Selective cytostatic activity of Hexadecylphosphocholine against tumor cells in vitro leads to the establishment of an in vivo screening system for phospholipid analogues,” Int. J. Oncol., 2:161 (1993). The GII values from Experiments 1 and 2 are detailed in Table 1 below.

[4] = 4 × 100 mg/kg per os, treatment day 0, 3, 7, 10, >100 = tumor regression
[5] = 2 × 316 mg/kg per os, treatment day 0, 7

In the case of `COc1cccc2c1C(=O)c1c(O)c3c(c(O)c1C2=O)C[C@@](O)(C(=O)CO)C[C@@H]3O[C@H]1C[C@H](N)[C@H](O)[C@H](C)O1` [Adriamycin, reference compound], the “efficacy of standard cytostatics” value [1] is reported as “relatively ineffective” and the “efficacy of standard cytostatics” value [2] is reported as “relatively ineffective”.

For `N.N.[Cl][Pt][Cl]` [Cisplatin, reference compound], the “efficacy of standard cytostatics” value [1] was “relatively ineffective” and the “efficacy of standard cytostatics” value [2] was “relatively ineffective”.

`O=P1(N(CCCl)CCCl)NCCCO1` (centres unmarked) [Cyclophosphamide, reference compound] was tested, and the “efficacy of standard cytostatics” value [1] was “relatively ineffective” and the “efficacy of standard cytostatics” value [2] was “relatively ineffective”.

`CCCCCCCCCCCCCCCCCCOP(=O)([O-])OC1CC[N+](C)(C)CC1` [Example 1, 4-(((Octadecyloxy)hydroxyphosphenyl)oxy)-1,1-dimethylpiperidinium hydroxide internal salt] was tested, and the “KB (G.I.I. %)” value ([1]; 1 × 511 mg/kg per os, treatment day 0) was 103%, the tumor remission [3] was “complete disappearance of tumors” and the “DMBA (G.I.I. %)” value [2, 4] was 119%. For the same compound, the “DMBA (G.I.I. %)” value ([2]; 14 × 31.6 mg/kg per os, treatment day 0-13) was 108% and the “DMBA (G.I.I. %)” value ([2]; 28 × 68.1 mg/kg per os, 'large tumors', treatment day 0-27) was 137%.

With `CCCCCCCCCCCCCCCCCCOP(=O)([O-])OCC1CCCC[N+]1(C)C` (centres unmarked) [Example 8, Octadecyl (1,1-dimethylpiperidinio-2-yl)methyl phosphate] the “KB (G.I.I. %)” value [1, 5] was 100%, the “GII (growth inhibition index)” value [3] was 100% and the “DMBA (G.I.I. %)” value [2, 4] was 125%.

For `CCCCCCCCCCCCCCCCCCOP(=O)([O-])OCC1CCC[N+](C)(C)C1` (centres unmarked) [Example 10, Octadecyl (1,1-dimethylpiperidinio-3-yl)methyl phosphate], the “KB (G.I.I. %)” value [1, 5] was 99% and the “GII (growth inhibition index)” value [3] was 100%.

`CCCCCCCCCCCCCCCCCCOP(=O)([O-])OC1CCC[N+](C)(C)CC1` (centres unmarked) [Example 13, Octadecyl 1,1-dimethylhexahydroazepinio-4-yl phosphate] was tested, and the “DMBA (G.I.I. %)” value ([2]; 1 × 511 mg/kg per os, 'large tumors', treatment day 0) was 145% and the “DMBA (G.I.I. %)” value ([2]; 14 × 46.4 mg/kg per os, treatment day 0-13) was 129%.

In the case of `CCCCCCCCCCCCCCCCCCOP(=O)([O-])OC1CC[N+](C)(C)C1` (centres unmarked) [Example 17, Octadecyl 1,1-dimethylpyrrolidinio-3-yl phosphate], the “KB (G.I.I. %)” value ([1]; 2 × 100 mg/kg per os, treatment day 0, 7) is reported as 90%.

With `CCCCCCCCCCCCCCCCOP(=O)([O-])OCC1CCC[N+]1(C)C` (centres unmarked) [Example 20, Hexadecyl (1,1-dimethylpyrrolidinio-2-yl)methyl phosphate] the “GII (growth inhibition index)” value [3] was 100% and the “DMBA (G.I.I. %)” value [2, 4] was 99%.

With `CCCCCCCCCCCCCCCCCCOP(=O)([O-])OCC1CCC[N+]1(C)C` (centres unmarked) [Example 21, Octadecyl (1,1-dimethylpyrrolidinio-2-yl)methyl phosphate] the “KB (G.I.I. %)” value [1, 5] was 106%, the tumor remission [3] was “complete disappearance of tumors” and the “DMBA (G.I.I. %)” value [2, 4] was 116%.

`CCCCCCCCCCCCCCCCOP(=O)([O-])OC1C[N+]2(C)CCC1CC2` (centres unmarked) [Example 22, Hexadecyl 1-methylquinuclidinio-3-yl phosphate] was tested, and the “KB (G.I.I. %)” value ([1]; 2 × 383 mg/kg per os, treatment day 0, 7) was 102% and the “DMBA (G.I.I. %)” value [2, 4] was 105%.

For `CCCCCCCCCCCCCCCCOP(=O)([O-])OC1CC2CCC(C1)[N+]2(C)C` (centres unmarked) [Example 24, Hexadecyl 1,1-dimethyltropanio-4-yl phosphate], the “KB (G.I.I. %)” value ([1]; 2 × 215 mg/kg per os, treatment day 0, 7) was 108%.

For `CCCCCCCCCCCCCCCCCCOP(=O)([O-])OC1CC2CCC(C1)[N+]2(C)C` (centres unmarked) [Example 25, Octadecyl 1,1-dimethyltropanio-4-yl phosphate], the “KB (G.I.I. %)” value [1, 5] was 110% and the tumor remission [3] was “complete disappearance of tumors”.
